Laboratory results from patent publication US11840686B2, “Modulation of prekallikrein (PKK) expression” (Ionis Pharmaceuticals, Inc., priority 2013, dated 2023).
Strand notation (5' to 3'): a small letter for the sugar, then the base; units joined by * are phosphorothioate-linked, units joined directly phosphodiester-linked; [ ] holds rarer units or linkages, { } end groups; capitals alone tell only the bases. e = 2'-O-(2-methoxyethyl) (MOE); [5mC] = 5-methylcytosine; d = 2'-deoxy (DNA)

The substances below were run on human PKK mRNA (assay: Antisense inhibition of human PKK mRNA in HepaRG cells, 5,000 nM (Example 2)). Conditions: HepaRG cells, 5,000 nM antisense oligonucleotide; 5-10-5 gapmers; Table 17.
Format: cell-based
In short: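 Percent inhibition of PKK mRNA is relative to untreated control, with qRT-PCR (probe set RTS3454) values adjusted to total RNA by RIBOGREEN. Oligonucleotides, fully phosphorothioate 2′-MOE gapmers, were delivered at 5,000 nM by electroporation into 20,000 HepaRG cells/well for about 24 h.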

| Substance | % inhibition [%] |
| --- | --- |
| 547016 (eG*eT*eA*eG*eG*dT*dG*dG*dT*dG*dG*dG*dA*dT*dT*eG*eG*eT*eG*eG; antisense) [compound 547016] | 62 |
| 547017 (eG*eG*eT*eA*eG*dG*dT*dG*dG*dT*dG*dG*dG*dA*dT*eT*eG*eG*eT*eG; antisense) [compound 547017] | 61 |
| 547018 (eG*eG*eT*eG*eG*d[5mC]*dG*dG*dG*dA*dT*dT*dG*dG*dT*eG*eG*eT*eG*eG; antisense) [compound 547018] | 58 |
| 547020 (eG*eG*eA*eT*e[5mC]*dG*dG*dT*dG*dG*dT*dG*dG*dG*dA*eT*eT*eG*eG*eT; antisense) [compound 547020] | 47 |
| 547021 (eT*eT*eG*eG*eT*dG*dG*d[5mC]*dG*dG*dG*dA*dT*d[5mC]*dG*eG*eT*eG*eG*eT; antisense) [compound 547021] | 57 |
| 547022 (eA*eT*eT*eG*eG*dT*dG*dG*d[5mC]*dG*dG*dG*dA*dT*d[5mC]*eG*eG*eT*eG*eG; antisense) [compound 547022] | 69 |
| 547023 (eG*eA*eT*eT*eG*dG*dT*dG*dG*d[5mC]*dG*dG*dG*dA*dT*e[5mC]*eG*eG*eT*eG; antisense) [compound 547023] | 91 |
| 547024 (eG*eG*eA*eT*eT*dG*dG*dT*dG*dG*d[5mC]*dG*dG*dG*dA*eT*e[5mC]*eG*eG*eT; antisense) [compound 547024] | 56 |
| 547025 (eT*eG*eG*eT*eG*dG*dT*dG*dG*dG*dA*dT*dT*dG*dG*eT*eG*eG*eT*eT; antisense) [compound 547025] | 72 |
| 547029 (eT*e[5mC]*eT*eT*e[5mC]*dT*dA*dG*dG*dG*d[5mC]*d[5mC]*dA*d[5mC]*dA*e[5mC]*e[5mC]*eT*e[5mC]*eT; antisense) [compound 547029] | 50 |
| 547035 (eT*eG*eG*eT*e[5mC]*d[5mC]*d[5mC]*dA*dA*dA*dT*dT*dG*dG*dA*eG*eT*eG*e[5mC]*eA; antisense) [compound 547035] | 40 |
| 547039 (eT*e[5mC]*eT*e[5mC]*eT*dA*dT*dA*d[5mC]*dA*dG*d[5mC]*dT*dG*dG*eG*e[5mC]*eA*e[5mC]*eA; antisense) [compound 547039] | 0 |
| 547049 (e[5mC]*eA*e[5mC]*eT*eT*d[5mC]*d[5mC]*d[5mC]*dA*dG*d[5mC]*dA*dA*d[5mC]*d[5mC]*e[5mC]*eT*e[5mC]*eA*e[5mC]; antisense) [compound 547049] | 20 |
| 547055 (eG*e[5mC]*eT*e[5mC]*e[5mC]*dT*dG*dG*d[5mC]*dA*dG*d[5mC]*dA*dA*dT*eG*eA*e[5mC]*e[5mC]*e[5mC]; antisense) [compound 547055] | 70 |
| 547059 (eG*eG*eG*eT*eA*dT*d[5mC]*dT*dT*d[5mC]*dA*d[5mC]*dT*dG*dT*eT*e[5mC]*e[5mC]*eA*eG; antisense) [compound 547059] | 12 |
| 547063 (e[5mC]*eG*eT*e[5mC]*eA*dT*dG*d[5mC]*dT*dT*dA*d[5mC]*d[5mC]*dT*dT*eT*e[5mC]*eT*e[5mC]*e[5mC]; antisense) [compound 547063] | 23 |
| 547069 (eG*e[5mC]*e[5mC]*e[5mC]*eT*d[5mC]*d[5mC]*dG*dA*dG*d[5mC]*dT*dT*dT*dG*eG*e[5mC]*eA*eA*e[5mC]; antisense) [compound 547069] | 35 |
| 547071 (eG*e[5mC]*eA*eG*e[5mC]*d[5mC]*d[5mC]*d[5mC]*d[5mC]*d[5mC]*dA*dG*dA*dA*dA*eT*e[5mC]*e[5mC]*e[5mC]*eA; antisense) [compound 547071] | 27 |
| 547076 (eT*e[5mC]*eT*e[5mC]*eA*dA*dG*d[5mC]*dA*dG*d[5mC]*d[5mC]*dT*dA*dT*eT*eG*eT*eG*eT; antisense) [compound 547076] | 14 |
| 547080 (eG*eT*eG*e[5mC]*eA*dA*dG*dA*d[5mC]*d[5mC]*dT*dT*dG*d[5mC]*dT*eT*eG*e[5mC]*e[5mC]*eA; antisense) [compound 547080] | 54 |
| 547081 (e[5mC]*eT*eG*eT*eA*dG*dT*d[5mC]*d[5mC]*dA*d[5mC]*dT*dA*d[5mC]*dA*e[5mC]*eA*eG*e[5mC]*eA; antisense) [compound 547081] | 83 |
| 547082 (eT*e[5mC]*eT*e[5mC]*e[5mC]*d[5mC]*dT*dG*dA*dG*dT*d[5mC]*dA*d[5mC]*dA*eG*eT*eG*eG*eA; antisense) [compound 547082] | 64 |
| 547085 (e[5mC]*e[5mC]*eA*eG*eG*dT*dG*d[5mC]*dA*dG*d[5mC]*dA*d[5mC]*dG*dG*eA*eG*eA*eG*eG; antisense) [compound 547085] | 44 |

Same assay, conditions: HepaRG cells, electroporation with 5,000 nM antisense oligonucleotide, approximately 24 hours, PKK mRNA by RT-PCR (RTS3454), relative to untreated control cells; Table 5 experiment

| Substance | % inhibition [%] |
| --- | --- |
| 547269 (eA*eA*eT*eG*eA*dA*d[5mC]*dG*dG*dT*d[5mC]*dT*dT*d[5mC]*dA*eA*eG*e[5mC]*eT*eG; antisense) [compound 547269] | 56 |
| 547270 (eA*eA*eA*eA*eT*dG*dA*dA*d[5mC]*dG*dG*dT*d[5mC]*dT*dT*e[5mC]*eA*eA*eG*e[5mC]; antisense) [compound 547270] | 68 |
| 547271 (eT*eT*eA*eA*eA*dA*dA*dT*dG*dA*dA*d[5mC]*dG*dG*dT*e[5mC]*eT*eT*e[5mC]*eA; antisense) [compound 547271] | 60 |
| 547272 (e[5mC]*eA*e[5mC]*eT*eT*dA*dA*dA*dA*dA*dT*dG*dA*dA*d[5mC]*eG*eG*eT*e[5mC]*eT; antisense) [compound 547272] | 82 |
| 547274 (antisense eG*eA*eG*eG*eT*dG*dA*dG*dT*d[5mC]*dT*d[5mC]*dT*dT*dG*eT*e[5mC]*eA*e[5mC]*eT) [compound 547274] | 70 |
| 547278 (antisense eA*e[5mC]*eA*e[5mC]*eA*dA*dT*dT*dG*d[5mC]*dT*dT*d[5mC]*dT*dT*eG*eG*eA*eG*eG) [compound 547278] | 70 |
| 547279 (antisense eA*eA*eA*eA*e[5mC]*dA*d[5mC]*dA*dA*dT*dT*dG*d[5mC]*dT*dT*e[5mC]*eT*eT*eG*eG) [compound 547279] | 69 |
| 547280 (antisense eG*eA*eA*eA*eA*d[5mC]*dA*d[5mC]*dA*dA*dT*dT*dG*d[5mC]*dT*eT*e[5mC]*eT*eT*eG) [compound 547280] | 47 |
| 547281 (antisense eT*eT*eG*e[5mC]*eT*dT*dG*dA*dA*dT*dA*dA*dA*dA*dT*e[5mC]*eA*eT*eT*e[5mC]) [compound 547281] | 41 |
| 547282 (antisense eT*eT*eG*e[5mC]*eT*dT*dG*d[5mC]*dT*dT*dG*dA*dA*dT*dA*eA*eA*eA*eT*e[5mC]) [compound 547282] | 53 |
| 547283 (antisense eA*eG*eT*eT*eG*d[5mC]*dT*dT*dG*d[5mC]*dT*dT*dG*dA*dA*eT*eA*eA*eA*eA) [compound 547283] | 67 |
| 547284 (antisense eA*eA*eA*eT*eG*dA*dA*dA*dT*dA*dA*dG*dT*dT*dG*e[5mC]*eT*eT*eG*e[5mC]) [compound 547284] | 26 |
| 547285 (antisense eA*e[5mC]*eT*eG*eT*dA*dG*d[5mC]*dA*dA*dA*d[5mC]*dA*dA*dG*eG*eA*eA*eA*eT) [compound 547285] | 51 |
| 547286 (antisense eA*eG*eA*e[5mC]*eA*dT*d[5mC]*d[5mC]*dA*d[5mC]*dA*dG*dG*dA*dA*eA*e[5mC]*eT*eG*eT) [compound 547286] | 68 |
| 547287 (antisense eG*eT*e[5mC]*eA*eG*dA*d[5mC]*dA*dT*d[5mC]*d[5mC]*dA*d[5mC]*dA*dG*eG*eA*eA*eA*e[5mC]) [compound 547287] | 69 |
| 547289 (antisense eT*eT*e[5mC]*eA*eT*dA*dG*dA*dG*dT*dT*dG*dA*dG*dT*e[5mC]*eA*eG*eA*e[5mC]) [compound 547289] | 74 |
| 547290 (antisense eA*eG*e[5mC]*eT*eA*d[5mC]*dA*dT*d[5mC]*d[5mC]*d[5mC]*d[5mC]*dA*d[5mC]*d[5mC]*eT*e[5mC]*eT*eG*eA) [compound 547290] | 76 |
| 547291 (antisense eA*eT*eG*eG*eA*dA*dG*d[5mC]*dT*dA*d[5mC]*dA*dT*d[5mC]*d[5mC]*e[5mC]*e[5mC]*eA*e[5mC]*e[5mC]) [compound 547291] | 74 |
| 547292 (antisense eT*eA*e[5mC]*eA*eT*dG*dG*dA*dA*dG*d[5mC]*dT*dA*d[5mC]*dA*eT*e[5mC]*e[5mC]*e[5mC]*e[5mC]) [compound 547292] | 60 |
| 547295 (antisense eA*e[5mC]*e[5mC]*eT*e[5mC]*dA*dT*d[5mC]*dT*dG*dG*d[5mC]*dA*dG*dT*eA*eT*eT*eG*eG) [compound 547295] | 88 |
| 547296 (antisense eT*eG*e[5mC]*eA*e[5mC]*d[5mC]*dT*d[5mC]*dA*dT*d[5mC]*dT*dG*dG*d[5mC]*eA*eG*eT*eA*eT) [compound 547296] | 72 |
| 547297 (antisense eT*eG*eG*eA*eA*dT*dG*dT*dG*d[5mC]*dA*d[5mC]*d[5mC]*dT*d[5mC]*eA*eT*e[5mC]*eT*eG) [compound 547297] | 84 |
